Values of other authors as cited in patent US12465571B2, “Solid dosage form” (University of Lancashire, priority 2016, dated 2025).

Details: high solubility and high permeability

In the case of `Cn1c(=O)c2[nH]cnc2n(C)c1=O` [theophylline, Theophylline], the “Biopharmaceutical Classification System class” value is listed as “class I”.
